Laboratory results from patent publication US5317095A, “Alpha-D-glycosyl kasugamycin, its preparation, and antibacterial agent containing the same” (Hayashibara Biochemical Laboratories, Inc., priority 1992, dated 1994).
Where two headings read alike, the source gives them in different places.

Assays:
[1] = pH Stability test of α-D-glucosyl kasugamycin; type: physicochemical; details: 120° C. for 1 hour; for remaining at 1 h: buffer, read-out: Residue (%); for remaining at 1 h / Residue (%): mean, n = 5
Method: Fifty μl of 2.56 w/v % aqueous solution of α-D-glucosyl kasugamycin (purity: about 80%), which was prepared according to the method described in Example 3 was mixed with 450 μl of a buffer adjusted to pH 2.0, 4.0, 6.0, 8.0 or 10.0. The mixture was kept at 120° C. for 1 hour in a well-closed container. As the buffer was used 1M HCl- Sodium acetate buffer (pH 2.0 or pH 4.0), 1M acetic acid buffer (pH 6.0), 1M Tris-HCl buffer (pH 8.0) or 1M NH4 OH- NH4 Cl buffer (pH 10.0).
Each of thus obtained mixtures was cooled with a running water. Then, the mixture was diluted 5 times with 0.5M Na3 PO4 -H3 PO4 (pH 6.0). Successively, the diluted mixture subjected to HPLC under the following conditions.
As a comparison was used a sample obtained by diluting 5 times a mixture of 50 μl of 2.56 w/v % aqueous solution of α-D-glucosyl kasugamycin and 450 μl of deionized water with 0.5M Na3 PO4 -H3 PO4 (pH 6.0).
Residue was calculated on the basis of a ratio of the peak area of α-D-glucosyl kasugamycin in each treated mixture to that in the sample as a comparison.
Also, 1.0 w/v % aquous solution of kasugamycin purchased from Hokko Kagaku Kogyo Kabushiki Kaisha was treated in the same manner as described in the case of α-D-glucosyl kasugamycin. Residue in each pH condition was calculated.
Column: ODS-M (commercially avairable from Shimazu Techno Research Co., Ltd.)
Eluate: Acetonitrile/Water*=8/92 (v/v) *0.2M CH3 (CH2)5 SO3 Na (pH was not adjusted) 0.005M Na3 PO4 -H3 PO4 (pH 6.0)

[2] = Solubility in solvents; type: physicochemical
[3] = tested on: dd mice; assay: Acute toxicity; type: in vivo; details: peritoneally administered; 7 week-old dd mice; highest dose 3,000 mg per kg body weight
Source text: The α-D-glucosyl kasugamycin was peritoneally administered to 7 week-old dd mice for acute toxicity test.

[4] = tested on: α-glucosidase derived from microorganisms of the genus Mucor; assay: Hydrolysis by α-glucosidase derived from microorganisms of the genus Mucor; type: in vitro ADME; details: enzyme from genus Mucor; forms 1 mole of D-glucose per 1 mole of kasugamycin
[5] = Stability in aqueous solution; type: physicochemical; details: pH in the range from 3.0 to 7.0
[6] = tested on: α-glucosidase derived from pig liver; assay: Hydrolysis by α-glucosidase derived from pig liver; type: in vitro ADME; details: pig liver enzyme; forms 1 mole of D-glucose per 1 mole of kasugamycin
[7] = tested on: α-glucosidase derived from seeds of rice plant; assay: Hydrolysis by α-glucosidase derived from seeds of rice plant; type: in vitro ADME; details: enzyme from seeds of rice plant; forms 1 mole of D-glucose per 1 mole of kasugamycin

C[C@H]1O[C@H](O[C@H]2[C@H](O)[C@@H](O)[C@@H](O)[C@H](O)[C@@H]2O)[C@@H](N)C[C@@H]1NC(=N)C(=O)O [Kasugamycin, kasugamycin]
remaining at 1 h ([1]; pH 2.0): 76%
remaining at 1 h ([1]; pH 4.0): 72.1%
remaining at 1 h ([1]; pH 6.0): 26.8%
remaining at 1 h ([1]; pH 8.0): 9.5%
Residue (%) ([1]; pH 10.0): trace

α-D-glucosyl kasugamycin
Solubility in 0.1N hydrochloric acid ([2]; 0.1N hydrochloric acid): readily soluble
Solubility in 0.1N sodium hydroxide ([2]; 0.1N sodium hydroxide): readily soluble
Solubility in acetic acid ([2]; acetic acid): readily soluble
Solubility in chloroform ([2]; chloroform): insoluble
Solubility in ethanol ([2]; ethanol): substantially insoluble
Solubility in ethyl acetate ([2]; ethyl acetate): insoluble
Solubility in methanol ([2]; methanol): substantially insoluble
Solubility in water ([2]; water): readily soluble
solubility in water relative to that of kasugamycin ([2]; water, room temperature, vs kasugamycin): not less than fivefold
deaths (acute toxicity) [3]: not observed any deaths
Hydrolysis by α-glucosidase [4]: readily hydrolyed
Residue (%) ([1]; pH 2.0): 76.2%
Residue (%) ([1]; pH 4.0): 75.2%
Residue (%) ([1]; pH 6.0): 26.9%
times stabler than kasugamycin ([1]; pH 8.0, 17.6/9.5): approximately 1.85 times
Residue (%) ([1]; pH 8.0): 17.6%
Residue (%) ([1]; pH 10.0): trace
Stability in an aqueous solution [5]: excellently stable
Hydrolysis by α-glucosidase [6]: readily hydrolyed
Hydrolysis by α-glucosidase [7]: readily hydrolyed
